Measurements from US10189809B2, “SGC stimulators” (Ironwood Pharmaceuticals, Inc., priority 2010, dated 2019).
Like-named read-outs stand apart in the source and are kept apart here.

Tests used:
[1] = molecular target: Human soluble guanylate cyclase enzyme (hsGC) (Homo sapiens (Human), UniProt Q02108+Q02153); assay: Purified human sGC enzyme activity assay; format: biochemical; conditions: for sGC Enzyme (fold increase at 10 μM without SNP) / sGC Enzyme (specific activity at 10 μM): 10 μM compound; for sGC Enzyme (specific activity at 30 μM) / sGC Enzyme (fold increase at 30 μM without SNP): 30 μM compound
Sequence of Human soluble guanylate cyclase enzyme (hsGC) (Q02153 whole entry): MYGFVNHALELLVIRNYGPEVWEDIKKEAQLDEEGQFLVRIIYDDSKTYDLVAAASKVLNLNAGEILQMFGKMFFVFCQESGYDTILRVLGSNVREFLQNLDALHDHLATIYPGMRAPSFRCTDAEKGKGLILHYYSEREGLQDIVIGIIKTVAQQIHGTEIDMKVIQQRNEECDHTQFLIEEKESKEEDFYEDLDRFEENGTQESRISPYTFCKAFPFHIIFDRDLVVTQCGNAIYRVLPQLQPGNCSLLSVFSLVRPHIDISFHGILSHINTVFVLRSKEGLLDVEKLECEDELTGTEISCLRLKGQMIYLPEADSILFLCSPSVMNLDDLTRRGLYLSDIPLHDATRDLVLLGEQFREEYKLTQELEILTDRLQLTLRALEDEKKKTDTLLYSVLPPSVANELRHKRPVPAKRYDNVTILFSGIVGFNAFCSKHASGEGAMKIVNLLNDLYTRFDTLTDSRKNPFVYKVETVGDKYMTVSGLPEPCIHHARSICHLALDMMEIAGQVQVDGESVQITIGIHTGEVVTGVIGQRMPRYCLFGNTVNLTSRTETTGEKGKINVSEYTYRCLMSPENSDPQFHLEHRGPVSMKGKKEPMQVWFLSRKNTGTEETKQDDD
Sequence of Human soluble guanylate cyclase enzyme (hsGC) (Q02108 whole entry): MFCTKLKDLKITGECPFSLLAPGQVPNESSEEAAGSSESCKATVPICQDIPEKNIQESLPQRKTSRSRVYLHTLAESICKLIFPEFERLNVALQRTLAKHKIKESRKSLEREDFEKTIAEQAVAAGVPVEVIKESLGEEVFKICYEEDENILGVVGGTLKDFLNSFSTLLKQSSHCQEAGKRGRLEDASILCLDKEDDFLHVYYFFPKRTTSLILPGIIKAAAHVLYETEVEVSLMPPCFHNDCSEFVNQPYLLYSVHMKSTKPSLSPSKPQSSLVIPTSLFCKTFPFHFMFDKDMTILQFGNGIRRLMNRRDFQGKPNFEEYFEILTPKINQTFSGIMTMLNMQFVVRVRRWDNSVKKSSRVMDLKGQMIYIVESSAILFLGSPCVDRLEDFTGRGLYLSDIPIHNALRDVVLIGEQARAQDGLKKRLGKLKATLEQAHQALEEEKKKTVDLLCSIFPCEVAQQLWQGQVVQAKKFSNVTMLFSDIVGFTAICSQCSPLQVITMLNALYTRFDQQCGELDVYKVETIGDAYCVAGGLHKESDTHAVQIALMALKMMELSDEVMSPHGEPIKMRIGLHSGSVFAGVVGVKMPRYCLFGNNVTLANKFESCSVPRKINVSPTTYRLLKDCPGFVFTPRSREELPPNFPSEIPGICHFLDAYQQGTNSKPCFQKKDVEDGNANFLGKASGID
Protocol: Human soluble guanylate cyclase enzyme (hsGC) obtained from Enzo Inc. (P/N: ALX-201-177) was used to evaluate the activity of test compounds. The assay reactions contained 0.1 M Tris (pH 8.0), 0.5 mg/mL BSA (pH 8.0), 2 mM DTT, 2 mM MgCl2, 300 μM GTP, 1 mM 3-isobutyl-1-methylxanthine (IBMX) and 5 ng human soluble guanylate cyclase enzyme. Test compounds in DMSO were then added (2 μL, 10 or 30 μM final concentration) and incubated (200 μL, 96-well plate format) at 37° C. for 30 minutes. The controls were carried out using 2 μL DMSO. After the 30 minute incubation, the reaction was stopped with the addition of 200 μL of cold methanol. The plate was then centrifuged at 3,200 rpm for 10 minutes at room temperature. Supernatants (200 μL) were collected and transferred to a new 96 well plate for analysis.
An 8 point cGMP (Sigma-Aldrich P/N: G6129) standard curve was prepared in assay buffer ranging from 0.156-20 μM. Samples for the cGMP standard curve were then diluted with an equal volume of methanol resulting in final cGMP concentrations of 0.078-10 μM.
The cGMP standard curve was generated using GraphPad Prism Software.
Calculations: Specific Activity was determined by the amount of cGMP formed (nmoles) per mg of sGC per min. Enzyme “fold-change” was calculated by dividing Specific Activity for test compounds by Specific Activity of DMSO controls.

[2] = molecular target: T1, soluble guanylate cyclase (sGC) (Homo sapiens (Human), UniProt Q02108+Q02153); assay: sGC-HEK-cGMP assay run in the absence of SNP (HEK WC assay); format: cell-based; conditions: for HEK WC Assay (fold increase at 10 μM): compound at 10 μM; for HEK WC Assay (fold increase at 10 μM) / HEK WC Assay (fold increase at 30 μM): no SNP, increase in the sGC receptor activity; for HEK WC Assay (fold increase at 30 μM) / HEK WC Assay (fold increase at 30 μM in the absence of SNP): compound at 30 μM
T1 sequence (Q02153 whole entry): as the sequence (Q02153 whole entry) above
T1 sequence (Q02108 whole entry): as the sequence (Q02108 whole entry) above
Procedure, shortened: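 HEK293 cells with endogenous sGC, preincubated 15 min at 37° C with 0.5 mM IBMX, then exposed to test compound 10 min at 37° C without SNP. Cells lysed in 0.1 M HCl; cGMP quantified by LC/MS against a standard curve. EC50 from concentration-response curves.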

[3] = molecular target: T1, soluble guanylate cyclase (sGC); assay: sGC-HEK-cGMP assay run with SNP incubation (HEK WC assay); format: cell-based; conditions: for Emax at 10 µM: read-out: HEK WC Assay (% Emax at 10 uM/with 10 uM SNP); for Emax at 30 µM: read-out: HEK WC Assay (% Emax at 30 uM/with 10 uM SNP); for HEK WC Assay (fold increase at 30 μM in the presence of 10 μM SNP): compound at 30 μM; for EC50: in the presence of 10 uM SNP
Procedure, shortened: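 HEK293 cells with endogenous sGC were pretreated with 0.5 mM IBMX for 15 min at 37 °C, then exposed to test compound plus sodium nitroprusside for 10 min at 37 °C.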

[4] = read-out: HEK WC Assay (% Emax at 1 μM with 10 uM SNP)
[5] = read-out: HEK WC Assay (% Emax at 10 μM with 10 uM SNP)
[6] = read-out: HEK WC Assay (% Emax at 30 μM with 10 uM SNP)

| Structure (SMILES) | sGC Enzyme (fold increase at 10 μM without SNP) [1] | sGC Enzyme (specific activity at 30 μM) [1] | sGC Enzyme (fold increase at 30 μM without SNP) [1] | HEK WC Assay (fold increase at 10 μM) [2] | HEK WC Assay (fold increase at 30 μM) [2] | Emax at 10 µM [3] [%] | Emax at 30 µM [3] [%] | sGC Enzyme (specific activity at 10 μM) [1] | HEK WC Assay (fold increase at 30 μM in the absence of SNP) [2] | HEK WC Assay (fold increase at 30 μM in the presence of 10 μM SNP) [3] | EC50 [3] [µM] | Emax [3, 4] [%] | Emax [3, 5] [%] | Emax [3, 6] [%] |
| --- | --- | --- | --- | --- | --- | --- | --- | --- | --- | --- | --- | --- | --- | --- |
| Fc1ccccc1Cn1nc(-c2ccccn2)cc1-c1ccncc1 [Compound I-11] | A (A = no increase to <2 fold increase) | C (C = 100 to <200) | A (A = no increase to <2 fold increase) | A (A = no increase to <1 fold increase) | A (A = no increase to <1 fold increase) | 0 to 10 | 0 to 10 |  |  |  |  |  |  |  |
| Fc1ccccc1Cn1nc(-c2ncccn2)cc1-c1ccncc1 [Compound I-19] | A (A = no increase to <2 fold increase) |  | A (A = no increase to <2 fold increase) | A (A = no increase to <1 fold increase) | A (A = no increase to <1 fold increase) |  |  |  |  |  |  |  |  |  |
| Fc1ccccc1Cn1nc(-c2ccccn2)cc1-c1cccnc1 [Compound I-20] | A (A = no increase to <2 fold increase) | D (D = 200 to <500) | A (A = no increase to <2 fold increase) | A (A = no increase to <1 fold increase) | A (A = no increase to <1 fold increase) |  |  | C (C = 100 to <200) |  |  |  |  |  |  |
| Fc1ccccc1Cn1nc(-c2ccccn2)cc1-c1cnccn1 [Compound I-34] | A (A = no increase to <2 fold increase) | C (C = 100 to <200) | A (A = no increase to <2 fold increase) | A (A = no increase to <1 fold increase) | A (A = no increase to <1 fold increase) | 0 to 10 | 0 to 10 | B (B = 50 to <100) |  |  |  |  |  |  |
| Fc1ccccc1Cn1nc(-c2ncccn2)cc1-c1cccnc1 [Compound I-10] | B (B = 2 to <5 fold increase) | D (D = 200 to <500) | B (B = 2 to <5 fold increase) | A (A = no increase to <1 fold increase) | A (A = no increase to <1 fold increase) | 0 to 10 | 0 to 10 | D (D = 200 to <500) |  |  |  |  |  |  |
| Fc1ccccc1Cn1nc(-c2ccccn2)cc1-c1ccncn1 [Compound I-21] | A (A = no increase to <2 fold increase) | C (C = 100 to <200) | A (A = no increase to <2 fold increase) | A (A = no increase to <1 fold increase) | A (A = no increase to <1 fold increase) | 0 to 10 | 10 to 20 | C (C = 100 to <200) |  |  |  |  |  |  |
| COc1cccc(-c2cc(-c3ncccn3)n(Cc3ccccc3F)n2)n1 [Compound I-15] | A (A = no increase to <2 fold increase) | C (C = 100 to <200) | A (A = no increase to <2 fold increase) | A (A = no increase to <1 fold increase) | A (A = no increase to <1 fold increase) | 0 to 10 | 0 to 10 | C (C = 100 to <200) |  |  |  |  |  |  |
| Fc1ccccc1Cn1nc(-c2ncccn2)cc1-c1cnc2ccoc2c1 [Compound I-32] | A (A = no increase to <2 fold increase) | D (D = 200 to <500) | A (A = no increase to <2 fold increase) | A (A = no increase to <1 fold increase) | A (A = no increase to <1 fold increase) | 0 to 10 | 0 to 10 | C (C = 100 to <200) |  |  |  |  |  |  |

Continued, values first:

| sGC Enzyme (fold increase at 10 μM without SNP) [1] | sGC Enzyme (specific activity at 30 μM) [1] | sGC Enzyme (fold increase at 30 μM without SNP) [1] | HEK WC Assay (fold increase at 10 μM) [2] | HEK WC Assay (fold increase at 30 μM) [2] | Emax at 10 µM [3] [%] | Emax at 30 µM [3] [%] | sGC Enzyme (specific activity at 10 μM) [1] | HEK WC Assay (fold increase at 30 μM in the absence of SNP) [2] | HEK WC Assay (fold increase at 30 μM in the presence of 10 μM SNP) [3] | EC50 [3] [µM] | Emax [3, 4] [%] | Emax [3, 5] [%] | Emax [3, 6] [%] | Structure (SMILES) |
| --- | --- | --- | --- | --- | --- | --- | --- | --- | --- | --- | --- | --- | --- | --- |
| A (A = no increase to <2 fold increase) | C (C = 100 to <200) | B (B = 2 to <5 fold increase) | A (A = no increase to <1 fold increase) | A (A = no increase to <1 fold increase) | 0 to 10 | 0 to 10 | B (B = 50 to <100) |  |  |  |  |  |  | Nc1ccnc(-c2cc(-c3ccccn3)nn2Cc2ccccc2F)n1 [Compound I-41] |
|  |  |  |  |  |  |  |  | E (E = 10 to <20 fold increase) | E (E = 10 to <20 fold increase) | < 20 | 40 to 60 | 60 to 80 | 80 to 100 | Nc1nc(-c2cc(-c3ccon3)n(Cc3ccccc3F)n2)ncc1NC(=O)c1cccnc1 [Compound I-179] |
|  |  |  |  |  |  |  |  | B (B = 1 to <2 fold increase) | B (B = 1 to <2 fold increase) |  |  | 0 to 10 | 10 to 20 | Nc1cc(O)nc(-c2cc(-c3ccon3)n(Cc3ccccc3F)n2)n1 [Compound I-154] |
|  |  |  |  |  |  |  |  | B (B = 1 to <2 fold increase) |  |  |  | 0 to 10 | 0 to 10 | Oc1ccc(-c2cc(-c3ccccn3)nn2Cc2ccccc2F)cc1 [Compound I-310] |
|  |  |  |  |  |  |  |  | C (C = 2 to <5 fold increase) | E (E = 10 to <20 fold increase) | < 20 | 20 to 40 | 60 to 80 | 60 to 80 | CC(C)(C(=O)Nc1cnc(-c2cc(-c3ccon3)n(Cc3ccccc3F)n2)nc1N)c1ccccc1 [Compound I-236] |
|  |  |  |  |  |  |  |  | C (C = 2 to <5 fold increase) | D (D = 5 to <10 fold increase) |  |  | 20 to 40 | 20 to 40 | Fc1ccccc1Cn1nc(-c2ccccn2)cc1-c1cnco1 [Compound I-285] |
|  |  |  |  |  |  |  |  | C (C = 2 to <5 fold increase) | E (E = 10 to <20 fold increase) | < 20 | 10 to 20 | 40 to 60 | 40 to 60 | Oc1ccnc(-c2cc(-c3ccon3)n(Cc3ccccc3F)n2)n1 [Compound I-160, 2-(1-(2-fluorobenzyl)-5-(isoxazol-3-yl)-1H-pyrazol-3-yl)pyrimidin-4-ol] |
|  |  |  |  |  |  |  |  | C (C = 2 to <5 fold increase) | D (D = 5 to <10 fold increase) | 40 to 60 |  | 40 to 60 | 40 to 60 | CNc1cnc(-c2cc(-c3ccon3)n(Cc3ccccc3F)n2)nc1N [Compound I-143] |
|  |  |  |  |  |  |  |  | D (D = 5 to <10 fold increase) | E (E = 10 to <20 fold increase) | < 20 | 60 to 80 | 60 to 80 | 60 to 80 | Nc1nc(-c2cc(-c3ccon3)n(Cc3ccccc3F)n2)ncc1NC(=O)CN1C(=O)c2ccccc2C1=O [Compound I-212] |
